According to patent publication US4468469A, “Substituted phenylacetic acids and salts as TBP blocking agents in iodothyronine immunoassays” (Miles Laboratories, Inc., priority 1982, dated 1984):
Like-named read-outs stand apart in the source and are kept apart here.

Legend:
[1] = test system: serum proteins (thyroxine binding protein, TBP); experiment: Dissociation of thyroxine from human serum, first experiment (Sephadex LH-20 column, pH 6.5)
Protocol: Approximately 3 milliliters (ml) of human serum was allowed to equilibrate with radioactive iodine-labeled thyroxine (^125 I-thyroxine obtained from Amersham-Searle, Arlington Heights, Ill., USA) for about 8 hours.
Then 100 microliter (μl) aliquots of this serum were combined with 300 μl aliquots of 0.1 molar (M) sodium phosphate buffer, pH 6.5, containing various concentrations of fenclofenac (British Pat. No. 1,308,327; example 6). Then 180 μl aliquots of each of these mixtures were applied to 2 ml columns of Sephadex LH-20 (Pharmacia Fine Chemicals, Piscataway, N.J. USA) equilibrated with 0.1M sodium phosphate buffer, pH 6.5. The radioactivity on the columns was measured and the columns were washed with 5 ml of the buffer. The radioactivity of each column was measured again and the results (shown below in Table 1) used as estimates of thyroxine dissociated from serum proteins.

[2] = test system: serum proteins (thyroxine binding protein, TBP); experiment: Effect of pH on the dissociation of iodothyronine from serum proteins; design: species or system human; conditions: for Percent Dissociated: dissociating agent 2.0 mM
Protocol: Radioactive iodine labeled thyroxine (^125 I-thyroxine obtained from Amersham-Searle, Arlington Heights, IL, USA) was equilibrated with 5 ml of normal human serum for 48 hours at 4° C. […] After 5 minutes of incubation at room temperature, a 165 μl aliquot was applied to a Sephadex® column from a Seralute® thyroxine assay kit (Miles Laboratories, Inc., Ames Division, Elkhart, IN, USA), which had been equilibrated with 0.1M sodium phosphate, pH 7.0. The total radioactivity applied to the columns was measured and the undissociated material was washed through the column with 3 ml of buffer. The columns were counted to determine the percentage of thyroxine dissociated from the serum proteins.
Using the column procedure described in the second study in Example 1, the pH of the 0.1M sodium phosphate was varied and the concentration of the dissociating agent held constant at 2.0 mM. The columns were equilibrated with buffer containing the dissociating agent at the given pH and 165 μl of the serum diluted in buffer at the given pH (as described above) was applied to the column. The total counts were measured and then the columns were washed with buffer at the given pH. The counts remaining on the column represent the percentage of iodothyronine dissociated.

[3] = test system: rabbit antiserum to thyroxine / dihydrofolate reductase; experiment: Enzyme inhibitor-labeled immunoassay for thyroxine in serum; assay type: biochemical; conditions: 0.5 mM fenclofenac in antibody reagent; for Absorbance Change per Minute: 340 nm
Protocol: An enzyme inhibitor-labeled immunoassay (U.S. Pat. No. 4,134,792) for thyroxine in serum was conducted using fenclofenac as the TBP blocking agent. Serum standards in 40 μl aliquots containing known concentrations of thyroxine were combined with 0.2 ml of an antibody reagent consisting of 21 μl rabbit antiserum to thyroxine in 1 ml of 0.1M sodium phosphate buffer, pH 6.5, containing 0.3M potassium chloride, 0.05% sodium azide, and 0.5 mM fencolfenac. After a 30 second incubation, to each mixture was added 0.2 ml of a conjugate reagent consisting of 0.63 mg/ml NADPH (0.65 mM), 0.0175 μM of a methotrexate-thyroxine conjugate [prepared as described in the U.S. patent application filed on even date herewith, assigned to the present assignee, entitled "Methotrexate-LabeledIodothyronine Conjugates Ser. No. 318,028, which application is incorporated herein by reference] in 10 mM sodium carbonate buffer, pH 9.5. […] After a further 5 minute incubation, to each mixture was added 50 μl of 2.5 mM dihydrofolate in 0.1M Tris.HCl, pH 8.5. Forty-five (45) seconds later, the absorbance of each solution at 340 nm was read over a 1 minute period.

[4] = target: apoglucose oxidase (Aspergillus niger, UniProt P13006); experiment: Activation of apoglucose oxidase by FAD-thyroxine conjugate; assay type: biochemical; conditions: 5.5 min, pH 7; for activity at 160 µM: 0.16 mM fenclofenac; for activity at 310 µM: 0.31 mM fenclofenac; for activity at 630 µM: 0.63 mM fenclofenac; for activity at 1250 µM: 1.25 mM fenclofenac; for activity at 2500 µM: 2.5 mM fenclofenac; for activity at 5000 µM: 5.0 mM fenclofenac; for activity at 10000 µM: 10.0 mM fenclofenac
Sequence of apoglucose oxidase (P13006 17-605): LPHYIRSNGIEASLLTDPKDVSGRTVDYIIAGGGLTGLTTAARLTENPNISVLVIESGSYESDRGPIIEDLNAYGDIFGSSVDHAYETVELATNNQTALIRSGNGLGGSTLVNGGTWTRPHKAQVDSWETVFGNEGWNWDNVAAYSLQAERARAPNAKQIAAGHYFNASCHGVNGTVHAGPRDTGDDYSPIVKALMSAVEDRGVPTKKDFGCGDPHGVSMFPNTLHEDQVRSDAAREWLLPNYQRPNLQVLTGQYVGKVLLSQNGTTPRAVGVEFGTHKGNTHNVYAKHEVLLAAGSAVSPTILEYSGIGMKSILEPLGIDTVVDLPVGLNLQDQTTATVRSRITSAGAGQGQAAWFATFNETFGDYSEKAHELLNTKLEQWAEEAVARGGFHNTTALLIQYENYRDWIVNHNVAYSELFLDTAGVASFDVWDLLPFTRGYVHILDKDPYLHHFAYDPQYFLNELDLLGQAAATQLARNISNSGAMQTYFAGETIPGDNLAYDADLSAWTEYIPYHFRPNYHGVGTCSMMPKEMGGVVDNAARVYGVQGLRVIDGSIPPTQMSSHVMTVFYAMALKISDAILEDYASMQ
Protocol: In a second study, the effect of fenclofenac on the activation of apoglucose oxidase by an FAD-iodothyronine (T-4) conjugate was investigated. The activation of apoglucose oxidase was set up with different concentrations of fenclofenac and performed at 37° C. To two sets of assays containing 96 mM sodium phosphate, pH 7.0, 95 mM glucose, 1.0 mM sodium dichlorohydroxybenzene sulfonate (DHSA), 19 μg/ml peroxidase and various concentrations of sodium fenclofenac were added apoglucose oxidase, 4-aminoantipyrine, and anti(glucose oxidase) at final concentrations of 100 nM, 100 μM, 5 μl/ml respectively or 2.1 nM final concentration of an FAD-thyroxine conjugate. After preincubating the assay media for 5 min at 37° C. the FAD-thyroxine conjugate or the apoglucose oxidase reagent was added to the appropriate assay set. The absorbance at 520 nm was recorded after a 330 second incubation. The data are presented as a percentage of the absorbance recorded when no fenclofenac is present.

[5] = test system: rabbit antibody to thyroxine; experiment: Radioimmunoassay for thyroxine in serum with fenclofenac as TBP blocking agent; assay type: binding; conditions: 0.67 mM fenclofenac
Protocol: A radioimmunoassay for thyroxine in serum was conducted using fenclofenac as the TBP blocking agent. Serum standards in 100 μl aliquots containing known concentrations of thyroxine were combined with 290 μl of 0.1M sodium phosphate buffer, pH 6.5, an amount of fenclofenac to give a concentration of 0.67 mM in the final assay mixture, 2 μl of rabbit antibody to thyroxine, and a fixed amount of ^125 I-thyroxine (approximately 34,000 counts per minute per 100 μl in the final volume). After incubation at room temperature for 2 hours, 400 μl of 50% (w/v) polyethyleneglycol was added and the resulting precipitates collected by centrifugation. The radioactivity of each precipitate was then measured. The results are shown in Table 3 (μg/dl is micrograms per deciliter).

[6] = read-out: percentage of the absorbance at 520 nm without fenclofenac, Started with Apoenzyme Addition
[7] = read-out: percentage of the absorbance at 520 nm without fenclofenac, Started with Conjugate Addition

O=C(O)Cc1ccccc1Oc1ccc(Cl)cc1Cl [Fenclofenac, 2-(2,4-dichlorophenoxy)phenylacetic acid]
Percent Thyroxine Dissociated ([1]; 0.25 mM fenclofenac): 50%
Percent Thyroxine Dissociated ([1]; 0.50 mM fenclofenac): 72%
Percent Thyroxine Dissociated ([1]; 1.0 mM fenclofenac): 79%
Percent Thyroxine Dissociated ([1]; 2.0 mM fenclofenac): 98%
Percent Thyroxine Dissociated ([1]; 5.0 mM fenclofenac): 100%
pH dependence of the dissociation of iodothyronine from serum proteins ([2]; over the range pH 6.0-8.0, 2.0 mM): independent of pH
Percent Dissociated ([2]; pH 6.0): 84%
Percent Dissociated ([2]; pH 6.5): 84%
Percent Dissociated ([2]; pH 7.0): 86%
Percent Dissociated ([2]; pH 7.5): 85%
Percent Dissociated ([2]; pH 8.0): 83%
interference with the spectrophotometric response at 340 nm or the enzymatic reaction [3]: did not substantially interfere
Absorbance Change per Minute ([3]; thyroxine standard 0 μg/dL): 0.1682
Absorbance Change per Minute ([3]; thyroxine standard 1.0 μg/dL): 0.1659
Absorbance Change per Minute ([3]; thyroxine standard 2.5 μg/dL): 0.1648
Absorbance Change per Minute ([3]; thyroxine standard 10. μg/dL): 0.1571
Absorbance Change per Minute ([3]; thyroxine standard 20. μg/dL): 0.1498
activity at 160 µM [4, 6]: 100%
activity at 160 µM [4, 7]: 97%
activity at 310 µM [4, 6]: 98%
activity at 310 µM [4, 7]: 92%
activity at 630 µM [4, 6]: 97%
activity at 630 µM [4, 7]: 94%
activity at 1250 µM [4, 6]: 93%
activity at 1250 µM [4, 7]: 95%
activity at 2500 µM [4, 6]: 90%
activity at 2500 µM [4, 7]: 85%
activity at 5000 µM [4, 6]: 78%
activity at 5000 µM [4, 7]: 74%
activity at 10000 µM [4, 6]: 53%
activity at 10000 µM [4, 7]: 54%
inhibition at 2000 µM ([4]; about 2 mM fenclofenac, FAD-thyroxine conjugate, read-out: colorimetric response diminished): 8 to 10%
Counts per Minute in Precipitate ([5]; thyroxine standard 0 μg/dl): 23,700 Counts per Minute
Counts per Minute in Precipitate ([5]; thyroxine standard 1.0 μg/dl): 21,800 Counts per Minute
Counts per Minute in Precipitate ([5]; thyroxine standard 2.5 μg/dl): 17,300 Counts per Minute
Counts per Minute in Precipitate ([5]; thyroxine standard 5.0 μg/dl): 14,400 Counts per Minute
Counts per Minute in Precipitate ([5]; thyroxine standard 10.0 μg/dl): 10,000 Counts per Minute
Counts per Minute in Precipitate ([5]; thyroxine standard 20.0 μg/dl): 7,500 Counts per Minute
